Test results as given in the supplement of paper PMC10307832.

Key:
Assay in all cases: relative viability (nuclei count vs DMSO), 5 days (fraction); higher = more cells survive
Afatinib + Linsitinib = compound: CN(C)C/C=C/C(=O)Nc1cc2c(Nc3ccc(F)c(Cl)c3)ncnc2cc1O[C@H]1CCOC1 [Afatinib] + C[C@]1(O)C[C@@H](c2nc(-c3ccc4ccc(-c5ccccc5)nc4c3)c3c(N)nccn32)C1 [Linsitinib] (partner 1 µM)
In short: (§1)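 Relative viability is defined as nuclei in treated wells over nuclei in vehicle wells. Duplicate plates were run and medians reported. Lung cancer cell lines in 1536-well plates were dosed by pin tool one day after seeding, with one drug or with a fixed anchor-drug dose plus five library-drug doses (not always all listed) in √10 steps, and nuclei were counted after 5 days.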

Afatinib + Foretinib = compound: CN(C)C/C=C/C(=O)Nc1cc2c(Nc3ccc(F)c(Cl)c3)ncnc2cc1O[C@H]1CCOC1 [Afatinib] + COc1cc2c(Oc3ccc(NC(=O)C4(C(=O)Nc5ccc(F)cc5)CC4)cc3F)ccnc2cc1OCCCN1CCOCC1 [Foretinib] (partner 0.25 µM)
In short: as §1

Afatinib + Luminespib = compound: CN(C)C/C=C/C(=O)Nc1cc2c(Nc3ccc(F)c(Cl)c3)ncnc2cc1O[C@H]1CCOC1 [Afatinib] + CCNC(=O)c1noc(-c2cc(C(C)C)c(O)cc2O)c1-c1ccc(CN2CCOCC2)cc1 [Luminespib] (partner 0.01 µM)
In short: as §1

Afatinib + Navitoclax = compound: CN(C)C/C=C/C(=O)Nc1cc2c(Nc3ccc(F)c(Cl)c3)ncnc2cc1O[C@H]1CCOC1 [Afatinib] + CC1(C)CCC(c2ccc(Cl)cc2)=C(CN2CCN(c3ccc(C(=O)NS(=O)(=O)c4ccc(N[C@H](CCN5CCOCC5)CSc5ccccc5)c(S(=O)(=O)C(F)(F)F)c4)cc3)CC2)C1 [Navitoclax] (partner 0.5 µM)
In short: as §1

| Cell Line | relative viability (Afatinib + Linsitinib; first compound 0.005 µM) | relative viability (Afatinib + Linsitinib; first compound 0.01581 µM) | relative viability (Afatinib + Linsitinib; first compound 0.05 µM) | relative viability (Afatinib + Linsitinib; first compound 0.1581 µM) | relative viability (Afatinib + Linsitinib; first compound 0.5 µM) | relative viability (Afatinib + Foretinib; first compound 0.005 µM) | relative viability (Afatinib + Foretinib; first compound 0.01581 µM) | relative viability (Afatinib + Foretinib; first compound 0.05 µM) | relative viability (Afatinib + Foretinib; first compound 0.1581 µM) | relative viability (Afatinib + Foretinib; first compound 0.5 µM) | relative viability (Afatinib + Luminespib; first compound 0.005 µM) | relative viability (Afatinib + Luminespib; first compound 0.01581 µM) | relative viability (Afatinib + Luminespib; first compound 0.05 µM) | relative viability (Afatinib + Luminespib; first compound 0.1581 µM) | relative viability (Afatinib + Luminespib; first compound 0.5 µM) | relative viability (Afatinib + Navitoclax; first compound 0.005 µM) | relative viability (Afatinib + Navitoclax; first compound 0.01581 µM) | relative viability (Afatinib + Navitoclax; first compound 0.05 µM) | relative viability (Afatinib + Navitoclax; first compound 0.1581 µM) | relative viability (Afatinib + Navitoclax; first compound 0.5 µM) |
| --- | --- | --- | --- | --- | --- | --- | --- | --- | --- | --- | --- | --- | --- | --- | --- | --- | --- | --- | --- | --- |
| NCI-H358 | 0.466 | 0.329 | 0.366 | 0.318 | 0.264 | 0.512 | 0.423 | 0.286 | 0.167 | 0.197 | 0.27 | 0.0409 | 0.189 | 0.101 | 0.125 |  |  |  |  |  |
| NCI-H522 |  |  |  |  |  |  |  |  |  |  | 1.25 | 1.19 | 0.978 | 0.923 | 1 |  |  |  |  |  |
| NCI-H650 | 0.872 | 0.706 | 1.03 | 0.999 | 0.697 | 1.13 | 0.997 | 1.06 | 1.02 | 0.998 | 0.841 | 0.816 | 0.791 | 0.814 | 0.788 |  |  |  |  |  |
| NCI-H661 | 0.669 | 0.531 | 0.516 | 0.375 | 0.294 | 1.06 | 0.874 | 0.738 | 0.75 | 0.625 | 0.994 | 0.895 | 0.867 | 0.674 | 0.629 |  |  |  |  |  |
| NCI-H1299 | 0.978 | 0.951 | 0.987 | 1.06 | 0.97 | 1.14 | 1.06 | 1.15 | 1.12 | 1.17 |  |  |  |  |  | 1.02 | 1.02 | 1.13 | 1.11 | 1.06 |
| NCI-H1563 | 1.32 | 1.14 | 1.27 | 1.06 | 1.21 | 0.891 | 0.967 | 0.933 | 0.836 | 0.87 | 0.489 | 0.558 | 0.552 | 0.501 | 0.515 |  |  |  |  |  |
| NCI-H1650 |  |  |  |  |  | 0.871 |  | 0.9 | 0.671 | 0.774 | 0.181 |  | 0.188 | 0.164 | 0.224 | 0.979 |  | 1.25 | 0.962 | 1.22 |
| NCI-H1703 | 0.49 |  | 0.651 | 0.608 | 0.585 | 0.319 |  | 0.347 | 0.361 | 0.329 |  |  |  |  |  | 1.22 | 0.95 | 1.34 | 0.746 | 0.641 |
| NCI-H1792 | 0.533 | 0.616 | 0.497 | 0.533 | 0.484 |  |  |  |  |  | 0.389 | 0.695 | 0.464 | 0.376 | 0.41 | 0.745 | 0.537 | 0.587 | 0.629 | 0.625 |
| NCI-H2170 |  |  |  |  |  | 0.962 | 1.01 | 0.906 | 0.369 | 0.294 | 0.831 | 0.671 | 0.449 | 0.163 | 0.231 | 0.481 | 0.454 | 0.284 | 0.187 | 0.2 |
| NCI-H2342 |  |  |  |  |  | 0.892 | 0.895 | 0.856 | 0.743 | 0.774 | 0.713 | 0.648 | 0.699 | 0.627 | 0.583 |  |  |  |  |  |
